According to patent publication US20170334899A1, “AMINO-SUBSTITUTED ISOTHIAZOLES” (Bayer Pharma Aktiengesellschaft, priority 2014, published 2017):

Legend:
[1] = molecular target: T1, CDK2/CycE (Homo sapiens, UniProt P24941); assay: CDK2/CycE kinase assay (TR-FRET); format: biochemical; details: avg, read-out: CDK2 avg (IC50 [mol/l])
T1 construct: GST; purchased ProQinase GmbH (Freiburg, Germany); host or cells: insect cells (Sf9)
In short: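 Read-out is a TR-FRET 665/620 nm emission ratio from EDTA-stopped reactions detected with anti-pRB(pSer807/pSer811), Eu-labelled anti-mouse IgG and streptavidin-XL665, scaled between no-enzyme and uninhibited wells. Reaction: Sf9-expressed GST-CDK2/GST-CycE, 15 min compound preincubation, 10 μM ATP, 0.75 μM biotin-peptide, 25 min, 22° C., pH 8.0 Tris buffer.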

[2] = tested on: HeLa; assay: Proliferation assay (crystal violet), HeLa; format: cell-based; details: Homo sapiens, HeLa, 96 h, HeLa cells; 4 days incubation; crystal violet staining; read-out: IC50 inhibition of proliferation, HeLa
In short: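 Four-day compound exposure (0.001-10 μM, 0.5% DMSO final) began 24 h after seeding 1000-5000 cells/well in medium with 10% fetal calf serum. Cell number read by crystal violet absorbance at 595 nm, scaled between day-zero plate and untreated control; 4-parameter fit gave IC50.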

Row | IC50 [1] [µM] | IC50 [2] [µM] | Structure (SMILES)
1 | ≥ 20 | 10 | Cc1nsc(Nc2ccc(C#N)cn2)c1C(=O)Nc1ccc(OCCCNC(=O)OC(C)(C)C)nc1 [Example 46, tert-Butyl [3-({5-[({5-[(5-cyanopyridin-2-yl)amino]-3-methyl-1,2-thiazol-4-yl}-carbonyl)amino]pyridin-2-yl}oxy)propyl]carbamate]
2 | > 20 | 0.29 | Cc1nsc(Nc2cnc(C(F)(F)F)cn2)c1C(=O)Nc1ccc(OC[C@H]2CCCN(CCC(F)(F)F)C2)nc1 [Example 378, 3-methyl-5-{[5-(trifluoromethyl)pyrazin-2-yl]amino}-N-(6-{[(3S)-1-(3,3,3-trifluoropropyl)piperidin-3-yl]methoxy}pyridin-3-yl)-1,2-thiazole-4-carboxamide]
3 | ≥ 20 | 1.8 | Cc1nsc(Nc2nc3c(C(F)(F)F)cccc3s2)c1C(=O)Nc1ccc(OCCO)c(F)c1 [Example 4, N-[3-Fluoro-4-(2-hydroxyethoxy)phenyl]-3-methyl-5-{[4-(trifluoromethyl)-1,3-benzothiazol-2-yl]amino}-1,2-thiazole-4-carboxamide]
4 | ≥ 20 | 10 | Cc1nsc(Nc2cnc3ccccc3n2)c1C(=O)Nc1cccc(C(=O)N2CCOCC2)c1 [Example 52, 3-Methyl-N-[3-(morpholin-4-ylcarbonyl)phenyl]-5-(quinoxalin-2-ylamino)-1,2-thiazole-4-carboxamide]
5 | > 20 | 0.25 | Cc1nsc(Nc2cnc(C(F)(F)F)cn2)c1C(=O)Nc1ccc(OC[C@H]2CCN(CC(F)(F)F)C2)nc1 [Example 404, 3-Methyl-N-(6-{[(3S)-1-(2,2,2-trifluoroethyl)pyrrolidin-3-yl]methoxy}pyridin-3-yl)-5-{[5-(trifluoromethyl)pyrazin-2-yl]amino}-1,2-thiazole-4-carboxamide]
6 | ≥ 20 | 1.1 | Cc1nsc(Nc2ccc(C#N)cn2)c1C(=O)Nc1ccc(OC2CCCN(CC(F)F)C2)nc1 (centres unmarked) [Example 39, 5-[(5-Cyanopyridin-2-yl)amino]-N-(6-{[1-(2,2-difluoroethyl)piperidin-3-yl]oxy}-pyridin-3-yl)-3-methyl-1,2-thiazole-4-carboxamide]
7 | ≥ 20 | 10 | Cc1nsc(Nc2cnc3ccccc3n2)c1C(=O)Nc1cccc(C(=O)O)c1 [Example 51, 3-({[3-Methyl-5-(quinoxalin-2-ylamino)-1,2-thiazol-4-yl]carbonyl}amino)benzoic acid]
